The assay addresses T1, Met kinase domain (GST fusion protein) (Homo sapiens, UniProt P08581).
T1 construct: Purified GST fusion protein containing the Met kinase domain
Put plainly: Met transphosphorylation assay (ELISA, poly(glu-tyr) substrate).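 Note: Cell-free ELISA with plate-bound poly(Glu:Tyr 4:1) phosphorylated by GST-fused Met kinase domain plus ATP and Mn2+, phosphotyrosine detected by anti-phosphotyrosine antibody with HRP and ABTS read-out.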 It counts as biochemical. The following applies: read-out: Met IC50. Background: An ELISA detects its analyte on a solid surface through an enzyme-linked reagent.

[1] abbreviates: plain numbers in column Met IC50 (μM) of Table 2.

“And” between values parts separate entries of the source, which are not always exact repeats. Equal entries are not always repeated. Structures can show the parent of a compound that is named as a salt. Where two headings read alike, the source gives them in different places. A value given as a limit tells only on which side of the number the result lay.

T1 sequence (P08581 1078-1345 limits assumed): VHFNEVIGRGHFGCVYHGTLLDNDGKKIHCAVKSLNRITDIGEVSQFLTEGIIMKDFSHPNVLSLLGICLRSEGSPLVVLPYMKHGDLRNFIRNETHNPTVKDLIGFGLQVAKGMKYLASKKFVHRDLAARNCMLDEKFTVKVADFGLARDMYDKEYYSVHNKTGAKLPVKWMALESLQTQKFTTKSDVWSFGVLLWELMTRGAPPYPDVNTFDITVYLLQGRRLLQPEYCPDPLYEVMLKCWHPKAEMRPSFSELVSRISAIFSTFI

Turning to `CC(Oc1cc(-c2cccc(C(=O)N3CCC(N4CCCC4)CC3)c2)cnc1N)c1c(Cl)ccc(F)c1Cl` (stereo not shown) [II-139, (3-{6-Amino-5-[1-(2,6-dichloro-3-fluoro-phenyl)-ethoxy]-pyridin-3-yl}-phenyl)-(4-pyrrolidin-1-yl-piperidin-1-yl)-methanone], the IC50 (usually the point on the concentration scale where inhibition reaches its midpoint) came out at 0.071 µM.
Same read-out and setting: as for `Nc1ncc(-c2cccc(C(=O)N3CCC[C@@H]3CN3CCCC3)c2)cc1OCc1c(Cl)cccc1Cl` [Example I-54, {3-(6-Amino-5-(2,6-dichloro-benzyloxy)-pyridin-3-yl]-phenyl}-[(2R)-2-pyrrolidin-1-ylmethyl-pyrrolidin-1-yl]-methanone], the figure is 2.5 µM.
On the same count and under the same terms, with `Nc1ncc(-c2cccc(OCCN3CCOCC3)c2)nc1OCc1c(Cl)cccc1Cl` [II-3, 3-(2,6-Dichloro-benzyloxy)-5-[3-(2-morpholin-4-yl-ethoxy)-phenyl]-pyrazin-2-ylamine] the figure was 0.74 µM.
For `Nc1ncc(-c2cncnc2)cc1OCc1ccc(Cl)cc1` [Example I-498, 3-(4-Chloro-benzyloxy)-5-pyrimidin-5-yl-pyridin-2-ylamine], the IC50 under setting [1] is over 20 µM.
Turning to `CC(Oc1cc(-c2cccc(OCCN3CCOCC3)c2)cnc1N)c1c(Cl)ccc(F)c1Cl` (stereo not shown) [Example I-358, 3-[1-(2,6-Dichloro-3-fluoro-phenyl)-ethoxy]-5-[3-(2-morpholin-4-yl-ethoxy)-phenyl]-pyridin-2-ylamine], for the setting “Table 2”, the 50% inhibitory concentration (IC50) was 0.22 µM.
As for `CC(Oc1cc(-c2cc(C(=O)N3CCN(C)CC3)ccn2)cnc1N)c1c(Cl)ccc(F)c1Cl` (stereo not shown) [Example I-511, {6′-Amino-5′-[1-(2,6-dichloro-3-fluoro-phenyl)-ethoxy]-[2,3′]bipyridinyl-4-yl}-(4-methyl-piperazin-1-yl)-methanone], the IC50 under setting [1] is 0.0742 µM.
Regarding `CS(=O)(=O)Nc1cccc(COc2cc(-c3ccccc3)cnc2N)c1` [Example I-105, N-[3-(2-Amino-5-phenyl-pyridin-3-yloxymethyl)-phenyl]-methanesulfonamide], the IC50 was over 20 µM.
`Nc1ncc(-c2ccc(NS(=O)(=O)CCN3CCC(O)CC3)cc2)cc1OCc1c(F)ccc(F)c1Cl` [Example I-246, 2-(4-Hydoxy-piperidin-1-yl)-ethanesulfonic acid {4-[6-amino-5-(2-chloro-3,6-difluoro-benzyloxy)-pyridin-3-yl]-phenyl}-amide]: the IC50 (Table 2) worked out at 0.135 µM.
On to `Nc1ncc(-c2ccc(C(=O)N3CC[C@H](N)C3)cc2)nc1OCc1c(F)ccc(F)c1Cl` [II-36, {4-[5-Amino-6-(2-chloro-3,6-difluoro-benzyloxy)-pyrazin-2-yl]-phenyl}-[(3S)-3-amino-pyrrolidin-1-yl]-methanone], for which the IC50 is 0.37 µM.
For `CC(Oc1cc(-c2ccc(OCCN3CCOCC3)cc2)cnc1N)c1c(F)ccc(F)c1Cl` (stereo not shown) [Example I-353, 3-[1-(2-Chloro-3,6-difluoro-phenyl)-ethoxy]-5-[4-(2-morpholin-4-yl-ethoxy)-phenyl]-pyridin-2-ylamine], for the setting “Table 2”, the IC50 stood at 0.23 µM.
With `CC(Oc1cc(C#CCNC(=O)CN2CCCCC2)cnc1N)c1c(Cl)ccc(F)c1Cl` (stereo not shown) [Example I-424, N-(3-{6-Amino-5-[1-(2,6-dichloro-3-fluoro-phenyl)-ethoxy]-pyridin-3-yl}-prop-2-ynyl)-2-piperidin-1- -yl-acetamide], the IC50 under setting [1] is 0.016 µM.
Take `Nc1ncc(-c2ccc(C(=O)NCCCN3CCOCC3)cc2)cc1OCc1ccc(Cl)cc1Cl` [Example I-181, 4-[6-Amino-5-(2,4-dichloro-benzyloxy)-pyridin-3-yl]-N-(3-morpholin-4-yl-propyl)-benzamide]: the IC50 turned out to be 2 µM.
The same measure, in the same setting: as for `C[C@@H]1CN(Cc2c[nH]c3ccc(-c4cnc(N)c(OCc5c(F)ccc(F)c5Cl)c4)cc23)C[C@H](C)O1` [Example I-71, 3-(2-Chloro-3,6-difluoro-benzyloxy)-5-[3-(2,6-dimethyl-morpholin-4-ylmethyl)-1H-indol-5-yl]-pyridin-2-ylamine], the figure is 2.71 µM.
Turning to `Nc1ncc(-c2cccc(C(=O)O)c2)cc1OCc1c(F)ccc(F)c1Cl` [Example I-225, 3-[6-Amino-5-(2-chloro-3,6-difluoro-benzyloxy)-pyridin-3-yl]-benzoic acid], where the note is “Table 2”, the IC50 was 3.7 µM and 0.6 µM.
Regarding `Nc1ncc(-c2ccc3[nH]cc(CN4CCCC4)c3c2)cc1OCc1c(Cl)cccc1Cl` [Example I-63, 3-(2,6-Dichloro-benzyloxy)-5-(3-pyrrolidin-1-ylmethyl-1H-indol-5-yl)-pyridin-2-ylamine], the IC50 was determined as 1.34 µM.
As for `CC(Oc1cc(-c2ccc(NS(=O)(=O)CCNC3CC3)cc2)cnc1N)c1c(F)ccc(F)c1Cl` (stereo not shown) [Example I-328, 2-Cyclopropylamino-ethanesulfonic acid (4-{6-amino-5-[1-(2-chloro-3,6-difluoro-phenyl)-ethoxy]-pyridin-3-yl}-phenyl)-amide], under “Table 2”, the IC50 worked out at 0.16 µM.
Regarding `CC(Oc1cc(-c2ccc(C(=O)N3CCN(C)CC3)nc2)cnc1N)c1c(F)ccc(F)c1Cl` (stereo not shown) [Example I-521, {6′-Amino-5′-[1-(2-chloro-3,6-difluoro-phenyl)-ethoxy]-[3,3′]bipyridinyl-6-yl}-(4-methyl-piperazin-1-yl)-methanone], the IC50 under setting [1] worked out at 0.0716 µM.
Turning to `CCN(CC)Cc1c[nH]c2ccc(-c3cnc(N)c(OCc4c(Cl)cccc4Cl)c3)cc12` [Example I-64, 3-(2,6-Dichloro-benzyloxy)-5-(3-diethylaminomethyl-1H-indol-5-yl)-pyridin-2-ylamine], the IC50 is 3.23 µM.
The same measure, in the same setting: with `Nc1ncc(-c2ccc(C(=O)N3CCC[C@@H]3CN3CCCC3)cc2)cc1OCc1c(F)cccc1F` [Example I-122] the figure was 1.21 µM.
As for `CCN(CC)CCS(=O)(=O)Nc1ccc(-c2cnc(N)c(OC(C)c3c(Cl)ccc(F)c3Cl)c2)cc1` (stereo not shown) [Example I-323, 2-Diethylamino-ethanesulfonic acid (4-{6-amino-5-[1-(2,6-dichloro-3-fluoro-phenyl)-ethoxy]-pyridin-3-yl}-phenyl)-amide], the IC50 (Table 2) amounted to 0.08 µM.
Same read-out and setting: as for `CC(Oc1cc(-c2ccc(C(=O)N3CCN(C)CC3)cc2)cnc1N)c1c(F)ccc(F)c1Cl` (stereo not shown) [Example I-338, (4-{6-Amino-5-[1-(2-chloro-3,6-difluoro-phenyl)-ethoxy]-pyridin-3-yl}-phenyl)-(4-methyl-piperazin-1-yl)-methanone], the figure is 0.077 µM.
Turning to `Nc1ncc(-c2ccc3[nH]cc(CN4CCOCC4)c3c2)cc1OCc1c(Cl)cccc1Cl` [Example I-61, 3-(2,6-Dichloro-benzyloxy)-5-(3-morpholin-4-ylmethyl-1H-indol-5-yl)-pyridin-2-ylamine], the IC50 was 1.19 µM.
On to `CC(Oc1nc(-c2ccc(C(=O)N3CCN(C)CC3)cn2)cnc1N)c1c(Cl)ccc(F)c1Cl` (stereo not shown) [II-199, 3-[1-(2,6-dichloro-3-fluoro-phenyl)ethoxy]-5-{5-[(4-methylpiperazin-1-yl)carbonyl]-pyridin-2-yl}pyrazin-2-amine trifluoroacetate], for which the IC50 came out at 0.15 µM.
On the same count and under the same terms, with `Nc1ncc(-c2ccc(C(=O)N3CC[C@H](N)C3)cc2)cc1OCc1ccc(Cl)cc1Cl` [Example I-175, {4-[6-Amino-5-(2,4-dichloro-benzyloxy)-pyridin-3-yl]-phenyl}-[(3S)-3-amino-pyrrolidin-1-yl]-methanone] the figure was 1.2 µM; with `CCN(CC)CCNC(=O)c1ccc(-c2cnc(N)c(OCc3c(Cl)cccc3Cl)c2)cc1` [Example I-36, 4-[6-Amino-5-(2,6-dichloro-benzyloxy)-pyridin-3-yl]-N-(2-diethylamino-ethyl)-benzamide], 0.99 µM.

For the origin of these results see patent publication US20050009840A1 (SUGEN, INC., priority 2003, published 2005).
